For one assay, the target named is T1, human IKK-β (Homo sapiens, UniProt O14920).
T1 construct: A cDNA fragment encoding human IKK-β open reading frame was generated by PCR; His; made in house; host or cells: Sf21 insect cells (baculovirus); the GST-IκBα substrate was made in E. coli
T1 sequence (O14920 1-756): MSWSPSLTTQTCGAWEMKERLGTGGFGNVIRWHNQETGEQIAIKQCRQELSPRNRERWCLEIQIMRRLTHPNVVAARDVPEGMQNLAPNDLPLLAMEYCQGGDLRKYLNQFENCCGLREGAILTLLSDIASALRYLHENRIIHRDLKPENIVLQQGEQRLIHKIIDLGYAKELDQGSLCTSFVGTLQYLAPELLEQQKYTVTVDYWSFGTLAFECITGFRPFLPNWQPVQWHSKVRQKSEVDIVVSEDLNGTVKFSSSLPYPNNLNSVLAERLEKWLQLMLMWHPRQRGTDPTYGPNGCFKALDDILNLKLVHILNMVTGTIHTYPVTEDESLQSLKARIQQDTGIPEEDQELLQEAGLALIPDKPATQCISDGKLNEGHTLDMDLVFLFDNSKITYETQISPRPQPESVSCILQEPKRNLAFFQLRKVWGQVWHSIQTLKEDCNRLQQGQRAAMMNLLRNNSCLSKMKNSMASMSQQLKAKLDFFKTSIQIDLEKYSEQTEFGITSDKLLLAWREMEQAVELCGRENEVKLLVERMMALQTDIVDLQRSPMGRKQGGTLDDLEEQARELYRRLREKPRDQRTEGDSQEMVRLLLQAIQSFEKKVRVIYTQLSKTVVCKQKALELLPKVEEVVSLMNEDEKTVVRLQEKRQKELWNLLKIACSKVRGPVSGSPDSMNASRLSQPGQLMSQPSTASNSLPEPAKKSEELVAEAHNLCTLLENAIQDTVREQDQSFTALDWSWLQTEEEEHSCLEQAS
The assay can be described thus: IKK-β kinase inhibitory assay. Conditions: compounds of about 40 to 90% purity, read-out: In vitro activity grade (invitro, IC50). It counts as biochemical. The text has this: IKK-β Kinase Inhibitory Assay.
• (1) Preparation of IKK-β Kinase Protein. • A cDNA fragment encoding human IKK-β open reading frame was generated by PCR with the use of a pair of primers designed from the published sequence (Woronicz J D et al. (1997) Science 278,866-869). A template was obtained from Quickclone cDNA (Clontech) using Elongase™ Amplification kit (Life Technologies). The DNA fragments generated by PCR were gel-purified and subcloned into pBluescript. The cDNA fragment cloned in pBluescript was inserted into pcDNA3.1/His C KpnI/NotI, and transferred into pVL1393 SmaI/XbaI (Pharmingen) to construct a baculovirus transfer vector. Then the vector, together with the linearized baculovirus (BaculoGold™, Pharmingen) was used to transfect Sf21 cells (Invitrogen, San Diego, Calif.). Generated recombinant baculovirus was cloned and amplified in Sf21 cells, grown in TNM-FH insect cell medium (Life Technologies, Inc.) supplemented with 10% FCS, […] Gentamycin, 0.1% Pluronic F-68 (Life Technologies, Inc.) as suspension culture (200 ml in 1 L Erlenmeyer flask; 27° C.; 130 rpm). Sf21 cells were infected with this amplified virus with a multiplicity of infection of 5 following standard protocols (Crossen R, Gruenwald S (1997) Baculovirus Expression Vector System Instruction Manual, Pharmingen Corporation) and harvested 48 hrs. later. The cells were lysed to obtain the produced chimeric protein of IKK-β kinase fused by histidine (His-tagged IKK-beta). • (2) The Preparation of Purified GST-IκBα Fusion Proteins • An expression vector containing the nucleotide sequence encoding fusion protein of GST with amino acid residues 1 to 54 of IκBα under the control of an IPTG-inducible promoter was constructed. The expression vector was introduced in E. coli and the transformant was cultured and lysed to obtain a GST-IκBα fusion protein. Then the resulting GST-IκBα fusion protein was purified and biotinated for kinase assay. • (3) The Measurement of IKK-β Kinase Activity • The 96-well format kinase assay of IKK-β was performed to test the inhibitory activity of the compounds of the present invention. First, 5 μl of a test compound was put in the presence of 2.5% dimethyl sulfoxide (DMSO) in each well in a U-bottomed 96-well plate (Falcon). For control wells of background (BG) and total phosphorylation (TP), 5 μl of 2.5% DMSO was put. Recombinant IKK-β (final 0.6 μg/ml) and bio-GST-IκBα (1-54) (final 0.2 μM) were diluted in 25 μl of 2×kinase buffer β (40 mM Tris-HCl, pH 7.6, 40 mM MgCl2, 40 mM β-glycerophosphate, 40 mM p-nitrophenyl-phosphate, 2 mM EDTA, 40 mM creatine phosphate, 2 mM DTT, 2 mM Na3VO4, 0.2 mg/ml BSA and 0.8 mM phenylmethylsulfonyl fluoride) and transferred to the 96-well plate. Bio-GST-IκBα (1-54) in 25 μl of 2×kinase buffer β without IKK-β was transferred to BG wells. Then 20 μl of 12.5 μM ATP, 62.5 μCi/ml [γ-^33P] ATP (Amersham Pharmacia Biotech) was added and the resulting mixture was incubated for 2 hrs. at room temperature. The kinase reactions were terminated by the addition of 150 μl of termination buffer (100 mM EDTA, 1 mg/ml BSA, 0.2 mg NaN3). One handred and fifty μl of the sample was transferred to a streptavidin-coated, white MTP (Steffens Biotechniche Analysen GmbH #08114E14. FWD) to capture the biotinylated substrates. After 1 hr. of incubation, non-bound radioactivity was eliminated by washing the wells five times with 300 μl of washing buffer including 0.9% NaCl and 0.1% (w/v) Tween-20 with the use of a MW-96 plate washer (BioTec). The bound radioactivity was determined after the addition of 170 μl MicroScint-PS scintillation cocktail (Packard) using a TopCount scintillation counter. Syk Tyrosine Kinase Inhibitory Assay for Selectivity. • (1) Preparation of Syk Protein • A cDNA fragment encoding human Syk openreading frame was cloned from total RNA of human Burkitt's lymphoma B cell lines, Raji (American Type Culture Collection), with the use of RT-PCR method. […]

The test system of assay [1] is RANTES production in response to TNF-α from A549 cells. The assay can be described thus: RANTES production in response to TNF-α from A549 cells. The class given is cell-based, human. Conditions: Homo sapiens, A549, 24 h, 100 ng/ml TNF-α, compounds of about 40 to 90% purity, read-out: Cellular activity grade (A549, IC50).

As usually defined, the IC50 is the concentration at which inhibition is half-maximal.

Take `Cc1ccc(O)c(-c2cc(-c3cccc(NC(=O)CCN4CCCCC4)c3)c(C#N)c(N)n2)c1` [Example 2-07]: the IC50 on human IKK-β is 2 to 10 µM; in assay [1], greater than 10 µM.

Take `CC(=O)N1CCN(CC(=O)Nc2cccc(-c3cc(-c4ccccc4O)nc(N)c3C#N)c2)CC1` [Example 4-05]: the results for the IC50 (on human IKK-β; in assay [1]) were 2 to 10 µM and greater than 10 µM, respectively.

Take `NC(=O)c1c(-c2cccc(NC(=O)C(O)CCC(=O)O)c2)cc(-c2ccccc2O)nc1N` (stereo not shown) [Example 7-2, Sodium 5-({3-[2-amino-3-(aminocarbonyl)-6-(2-hydroxyphenyl)-4-pyridinyl]-phenyl}amino)-4-hydroxy-5-oxopentanoate]: the IC50 at human IKK-β is 2 to 10 µM; in assay [1], greater than 10 µM.

For the compound `N#Cc1c(-c2cccc(NC(=O)C3CCC(=O)O3)c2)cc(-c2ncccc2O)nc1N` (stereo not shown) [Example 1-20], the half-maximal inhibitory concentration (IC50) at human IKK-β is 2 to 10 µM; in assay [1], greater than 10 µM.

Turning to `N#Cc1c(-c2cccc(NC(=O)CN3CCN(C4CCCCC4)CC3)c2)cc(-c2ccccc2O)nc1N` [Example 4-04], the IC50 on human IKK-β lay in the range of 0.5 to 2 µM; in assay [1], 1 to 10 µM.

`CN1CCN(CCC(=O)Nc2cccc(-c3cc(-c4ccccc4O)nc(N)c3C#N)c2)CC1` [Example 4-10]: the concentration for half-maximal inhibition (IC50) was 0.5 to 2 µM on human IKK-β and 1 to 10 µM in assay [1].

For the compound `CCN1CCN(CC(=O)Nc2cccc(-c3cc(-c4ccccc4O)nc(N)c3C#N)c2)CC1` [Example 4-06], the IC50 at human IKK-β was 0.5 to 2 µM; in assay [1], 1 to 10 µM.

Consider `CN(C)c1ccc(-c2cc(-c3ccccc3O)nc(N)c2C#N)cc1NC(=O)CCN` [Example 3-07], for which the values for the IC50 (on human IKK-β; in assay [1]) were less than 0.5 µM and 1 to 10 µM, respectively.

Turning to `N#Cc1c(-c2ccc(N3CCC(NC(=O)C(F)(F)F)C3)c(NC(=O)CNCC3CC3)c2)cc(-c2ccccc2O)nc1N` (stereo not shown) [Example 4-38], the results for the concentration for half-maximal inhibition (IC50) (on human IKK-β; in assay [1]) were less than 0.5 µM and 1 to 10 µM, respectively.

Take `N#Cc1c(-c2cccc(NC(=O)CCN3CCCCC3)c2)cc(-c2ncccc2O)nc1N` [Example 2-17]: the values for the half-maximal inhibitory concentration (IC50) (at human IKK-β; in assay [1]) were 0.5 to 2 µM and greater than 10 µM, respectively.

As for `N#Cc1c(-c2ccc(N3CCCCC3)c(NC(=O)CCN)c2)cc(-c2ccccc2O)nc1N` [Example 3-03], the half-maximal inhibitory concentration (IC50) on human IKK-β was less than 0.5 µM; in assay [1], 1 to 10 µM.

In the case of `Cc1ccc(O)c(-c2cc(-c3cccc(NC(=O)C4CCC(=O)O4)c3)c(C#N)c(N)n2)c1` (stereo not shown) [Example 1-11], the IC50 (on human IKK-β; in assay [1]) was greater than 10 µM each time.

In the case of `Nc1nc(-c2ccccc2O)cc(-c2cccc(NC(=O)CCN3CCCCC3)c2)c1CO` [Example 7-3, N-{3-[2-amino-3-(hydroxymethyl)-6-(2-hydroxyphenyl)-4-pyridinyl]phenyl}-3-(1-piperidinyl)propanamide], the values for the IC50 (at human IKK-β; in assay [1]) were 0.5 to 2 µM and 1 to 10 µM, respectively.

Turning to `CN(C)[C@H]1CCN(c2ccc(-c3cc(-c4ccccc4O)nc(N)c3C#N)cc2NC(=O)CNCC2CC2)C1` [Example 3-14], the half-inhibitory concentration (IC50) was less than 0.5 µM at human IKK-β and 1 to 10 µM in assay [1].

With `CC(C)C[C@H](N)C(=O)Nc1cc(-c2cc(-c3ccccc3O)nc(N)c2C#N)ccc1N1CCC(NC(=O)C(F)(F)F)C1` (stereo partly shown) [Example 3-16], the half-inhibitory concentration (IC50) is less than 0.5 µM on human IKK-β and 1 to 10 µM in assay [1].

As to `N#Cc1c(-c2cccc(NC(=O)CCN3CCCC(C(=O)O)C3)c2)cc(-c2ccccc2O)nc1N` (stereo not shown) [Example 4-29], the values for the IC50 (at human IKK-β; in assay [1]) were 0.5 to 2 µM and greater than 10 µM, respectively.

Turning to `N#Cc1c(-c2cccc(NC(=O)CN3CCCC3)c2)cc(-c2ccccc2O)nc1N` [Example 4-23], the IC50 lay within 0.5 to 2 µM at human IKK-β and 1 to 10 µM in assay [1].

Regarding `N#Cc1c(-c2ccc(N3CCC[C@H]3CO)c(NC(=O)CCN3CCCCC3)c2)cc(-c2ccccc2O)nc1N` [Example 3-12], the IC50 on human IKK-β lay in the range of 0.5 to 2 µM; in assay [1], 1 to 10 µM.

Turning to `N#Cc1c(-c2cccc(NC(=O)CCCC(=O)O)c2)cc(-c2ccccc2O)nc1N` [Example 1-19], the half-inhibitory concentration (IC50) on human IKK-β is 0.5 to 2 µM; in assay [1], greater than 10 µM.

On to `CCN1CCC(N(CC)CCC(=O)Nc2cccc(-c3cc(-c4ccccc4O)nc(N)c3C#N)c2)C1` (stereo not shown) [Example 4-16], for which the half-inhibitory concentration (IC50) was in the range of 0.5 to 2 µM on human IKK-β and 1 to 10 µM in assay [1].

As for `N#Cc1c(-c2cccc(NC(=O)C(O)CCC(=O)O)c2)cc(-c2cc(Cl)ccc2O)nc1N` (stereo not shown) [Example 1-17], the values for the IC50 (on human IKK-β; in assay [1]) were 2 to 10 µM and greater than 10 µM, respectively.

Take `N#Cc1c(-c2ccc(NC(=O)CCN3CCCCC3)cc2)cc(-c2ccccc2O)nc1N` [Example 2-05]: the IC50 on human IKK-β was 0.5 to 2 µM; in assay [1], greater than 10 µM.

Regarding `CC(C)C[C@H](N)C(=O)Nc1cc(-c2cc(-c3ccccc3O)nc(N)c2C#N)ccc1N(C)Cc1ccccc1` [Example 3-15], the results for the IC50 (at human IKK-β; in assay [1]) were 2 to 10 µM and 1 to 10 µM, respectively.

Regarding `CC(=O)Nc1ccc(-c2cc(-c3ccccc3O)nc(N)c2CO)cc1O` [Example 8-04], the IC50 at human IKK-β was less than 0.5 µM; in assay [1] it was less than 1 µM.

Take `COc1cccc(O)c1-c1cc(-c2cccc(NC(=O)C3CCC(=O)O3)c2)c(C#N)c(N)n1` (stereo not shown) [Example 1-12]: the IC50 was 0.5 to 2 µM on human IKK-β and greater than 10 µM in assay [1].

Turning to `CN(C)c1ccc(NC(=O)CCN2CCCCC2)cc1-c1cc(-c2ccccc2O)nc(N)c1C#N` [Example 3-09], the concentration for half-maximal inhibition (IC50) at human IKK-β was in the range of 2 to 10 µM; in assay [1] it was 1 to 10 µM.

As to `CCN(CC)c1ccc(-c2cc(-c3ccccc3O)nc(N)c2C#N)cc1NC(=O)CCN1CCCCC1` [Example 3-13], the concentration for half-maximal inhibition (IC50) is 2 to 10 µM at human IKK-β and 1 to 10 µM in assay [1].

For the compound `COCCNCC(=O)Nc1cccc(-c2cc(-c3ccccc3O)nc(N)c2C#N)c1` [Example 4-24], the half-maximal inhibitory concentration (IC50) at human IKK-β was 0.5 to 2 µM; in assay [1] it was greater than 10 µM.

Regarding `N#Cc1c(-c2ccc(Cl)c(NC(=O)CCN)c2)cc(-c2ccccc2O)nc1N` [Example 2-13], the half-inhibitory concentration (IC50) at human IKK-β is less than 0.5 µM; in assay [1], 1 to 10 µM.

The values above are taken from patent US7410986B2, “4-6-diphenyl pyridine derivatives as antiinflammatory agents” (Bayer Aktiengesellschaft, priority 2000, dated 2008).
